Laboratory results published in ChEMBL document CHEMBL4004821, “Design and synthesis of novel tetrandrine derivatives as potential anti-tumor agents against human hepatocellular carcinoma” (Eur J Med Chem, 2017).
Calls of active or inactive are those of the source. The rule behind the calls is not given here.

Key:
MHCC97L [1] = experiment: Cytotoxicity against human MHCC97L cells assessed as decrease in cell viability at 1.25 to 2.5 uM after 24 hrs in presence of necrosis inhibitor necrostatin-1 by MTT assay; format: functional, cell-based
PLC-PRF-5 [2] = experiment: Cell cycle arrest in human PLC/PRF/5 cells assessed as accumulation at G2/M phase at 1.25 to 2.5 uM after 24 hrs by propidium iodide staining-based flow cytometric method (reference value: 18.18%); format: functional
MHCC97L [3] = experiment: Cytotoxicity against human MHCC97L cells assessed as decrease in cell viability at 1.25 to 2.5 uM after 24 hrs in presence of endoplasmic reticulum stress reliever TUDCA by MTT assay; format: functional, cell-based
[4] = Induction of apoptosis in human MHCC97L cells assessed as early apoptotic cells at 1.25 to 2.5 uM after 24 hrs by annexin V/7-AAD staining-based flow cytometric method (reference value: 0.601%); format: functional
PLC-PRF-5 [5] = experiment: Cytotoxicity against human PLC/PRF/5 cells assessed as decrease in cell viability at 1.25 to 2.5 uM after 24 hrs in presence of caspase inhibitor Z-vad-fmk by MTT assay; format: functional, cell-based
PLC-PRF-5 [6] = experiment: Cell cycle arrest in human PLC/PRF/5 cells assessed as accumulation at S phase at 1.25 to 2.5 uM after 24 hrs by propidium iodide staining-based flow cytometric method (reference value: 20.73%); format: functional
PLC-PRF-5 [7] = experiment: Induction of apoptosis in human PLC/PRF/5 cells assessed as late apoptotic cells at 1.25 to 2.5 uM after 24 hrs by annexin V/7-AAD staining-based flow cytometric method (reference value: 2.66%); format: functional
PLC-PRF-5 [8] = experiment: Cytotoxicity against human PLC/PRF/5 cells assessed as decrease in cell viability at 1.25 to 2.5 uM after 24 hrs in presence of JNK inhibitor SP600125 by MTT assay; format: functional, cell-based
MHCC97L [9] = experiment: Cytotoxicity against human MHCC97L cells assessed as decrease in cell viability at 1.25 to 2.5 uM after 24 hrs in presence of caspase inhibitor Z-vad-fmk by MTT assay; format: functional, cell-based
PLC-PRF-5 [10] = experiment: Induction of apoptosis in human PLC/PRF/5 cells assessed as necrotic cells at 1.25 to 2.5 uM after 24 hrs by annexin V/7-AAD staining-based flow cytometric method (reference value: 1.87%); format: functional
[11] = Cell cycle arrest in human MHCC97L cells assessed as accumulation at G0/G1 phase at 1.25 to 2.5 uM after 24 hrs by propidium iodide staining-based flow cytometric method (reference value: 65.24%); format: functional
[12] = Induction of apoptosis in human MHCC97L cells assessed as late apoptotic cells at 1.25 to 2.5 uM after 24 hrs by annexin V/7-AAD staining-based flow cytometric method (reference value: 3.66%); format: functional
[13] = Cell cycle arrest in human MHCC97L cells assessed as accumulation at S phase at 1.25 to 2.5 uM after 24 hrs by propidium iodide staining-based flow cytometric method (reference value: 18.41%); format: functional
PLC-PRF-5 [14] = experiment: Induction of apoptosis in human PLC/PRF/5 cells assessed as early apoptotic cells at 1.25 to 2.5 uM after 24 hrs by annexin V/7-AAD staining-based flow cytometric method (reference value: 0.467%); format: functional
[15] = biological target: T1, c-Jun N-terminal kinase, JNK (Homo sapiens) (UniProt P45983+P53779+P45984); experiment: Induction of JNK activation in human PLC/PRF/5 cells assessed as increase in caspase 3 cleavage at 1.25 to 2.5 uM after 24 hrs by immunoblot method; format: cell-based
[16] = Potency index, ratio of sorafenib IC50 to test compound IC50 for human MHCC97L cells; format: functional
[17] = biological target: T1, c-Jun N-terminal kinase, JNK (Homo sapiens); experiment: Induction of JNK phosphorylation in human MHCC97L cells at 1.25 to 2.5 uM after 24 hrs by immunoblot method; format: cell-based
PLC-PRF-5 [18] = experiment: Cytotoxicity against human PLC/PRF/5 cells assessed as decrease in cell viability at 1.25 to 2.5 uM after 24 hrs in presence of autophagy inhibitor bafilomycin A1 by MTT assay; format: functional, cell-based
PLC-PRF-5 [19] = experiment: Potency index, ratio of sorafenib IC50 to test compound IC50 for human PLC/PRF/5 cells; format: functional
[20] = Potency index, ratio of tetrandrine IC50 to test compound IC50 for human MHCC97L cells; format: functional
MHCC97L [21] = experiment: Cytotoxicity against human MHCC97L cells assessed as decrease in cell viability at 1.25 to 2.5 uM after 24 hrs in presence of autophagy inhibitor bafilomycin A1 by MTT assay; format: functional, cell-based
PLC-PRF-5 [22] = experiment: Cytotoxicity against human PLC/PRF/5 cells assessed as decrease in cell viability at 1.25 to 2.5 uM after 24 hrs in presence of endoplasmic reticulum stress reliever TUDCA by MTT assay; format: functional, cell-based
[23] = biological target: T1, c-Jun N-terminal kinase, JNK (Homo sapiens); experiment: Induction of JNK phosphorylation in human PLC/PRF/5 cells at 1.25 to 2.5 uM after 24 hrs by immunoblot method; format: cell-based
PLC-PRF-5 [24] = experiment: Induction of endoplasmic reticulum stress in human PLC/PRF/5 cells at 1.25 to 2.5 uM after 24 hrs by ER tracker red staining-based fluorescence microscopic method; format: functional, cell-based
PLC-PRF-5 [25] = experiment: Cell cycle arrest in human PLC/PRF/5 cells assessed as accumulation at G0/G1 phase at 1.25 to 2.5 uM after 24 hrs by propidium iodide staining-based flow cytometric method (reference value: 69.17%); format: functional
[26] = Induction of apoptosis in human MHCC97L cells assessed as viable cells at 1.25 to 2.5 uM after 24 hrs by annexin V/7-AAD staining-based flow cytometric method (reference value: 93.4%); format: functional
PLC-PRF-5 [27] = experiment: Potency index, ratio of tetrandrine IC50 to test compound IC50 for human PLC/PRF/5 cells; format: functional
PLC-PRF-5 [28] = experiment: Cytotoxicity against human PLC/PRF/5 cells assessed as decrease in cell viability at 1.25 to 2.5 uM after 24 hrs in presence of necrosis inhibitor necrostatin-1 by MTT assay; format: functional, cell-based
[29] = Cell cycle arrest in human MHCC97L cells assessed as accumulation at G2/M phase at 1.25 to 2.5 uM after 24 hrs by propidium iodide staining-based flow cytometric method (reference value: 20.60%); format: functional
PLC-PRF-5 [30] = experiment: Cytotoxicity against human PLC/PRF/5 cells assessed as growth inhibition after 24 hrs by MTT assay; format: functional, cell-based; settings: PLC-PRF-5, 24 h
[31] = biological target: T1, c-Jun N-terminal kinase, JNK (Homo sapiens); experiment: Induction of JNK activation in human MHCC97L cells assessed as increase in caspase 3 cleavage at 1.25 to 2.5 uM after 24 hrs by immunoblot method; format: cell-based
MHCC97L [32] = experiment: Cytotoxicity against human MHCC97L cells assessed as decrease in cell viability at 1.25 to 2.5 uM after 24 hrs in presence of JNK inhibitor SP600125 by MTT assay; format: functional, cell-based
MHCC97L [33] = experiment: Induction of endoplasmic reticulum stress in human MHCC97L cells assessed as upregulation of ATF4 gene expression at 1.25 to 2.5 uM after 24 hrs by qRT-PCR method; format: functional, cell-based
[34] = Induction of apoptosis in human MHCC97L cells assessed as necrotic cells at 1.25 to 2.5 uM after 24 hrs by annexin V/7-AAD staining-based flow cytometric method (reference value: 3.44%); format: functional
MHCC97L [35] = experiment: Induction of endoplasmic reticulum stress in human MHCC97L cells at 1.25 to 2.5 uM after 24 hrs by ER tracker red staining-based fluorescence microscopic method; format: functional, cell-based
PLC-PRF-5 [36] = experiment: Induction of endoplasmic reticulum stress in human PLC/PRF/5 cells assessed as upregulation of ATF4 gene expression at 1.25 to 2.5 uM after 24 hrs by qRT-PCR method; format: functional, cell-based
PLC-PRF-5 [37] = experiment: Induction of endoplasmic reticulum stress in human PLC/PRF/5 cells assessed as upregulation of GRP78 gene expression at 1.25 to 2.5 uM after 24 hrs by qRT-PCR method; format: functional, cell-based
MHCC97L [38] = experiment: Induction of endoplasmic reticulum stress in human MHCC97L cells assessed as upregulation of GRP78 gene expression at 1.25 to 2.5 uM after 24 hrs by qRT-PCR method; format: functional, cell-based
[39] = Cytotoxicity against human MHCC97L cells assessed as growth inhibition after 24 hrs by MTT assay; format: functional, cell-based
PLC-PRF-5 [40] = experiment: Induction of apoptosis in human PLC/PRF/5 cells assessed as viable cells at 1.25 to 2.5 uM after 24 hrs by annexin V/7-AAD staining-based flow cytometric method (reference value: 95%); format: functional

For `COc1cc(NC(=O)c2ccco2)c2cc1Oc1ccc(cc1)C[C@H]1c3cc(c(OC)cc3CCN1C)Oc1c(OC)c(OC)cc3c1[C@H](C2)N(C)CC3`, the Activity (MHCC97L [1]) was “Active”, the Activity (PLC-PRF-5 [2]) was 17.78% and the Activity (MHCC97L [3]) was “inactive”. The Activity [4] was 9.76%, the Activity (PLC-PRF-5 [5]) was “inactive” and the Activity (PLC-PRF-5 [6]) was 21.55%. For the same molecule, the Activity (PLC-PRF-5 [7]) was 42.8%, the Activity (PLC-PRF-5 [8]) was “inactive” and the Activity (MHCC97L [9]) was “inactive”. The Activity (PLC-PRF-5 [10]) was 3.9%, the Activity [11] was 68.52% and the Activity [12] was 39.6%. The Activity [13] was 21.59%, the Activity (PLC-PRF-5 [14]) was 16.9% and the Activity [15] was “Active”. For the same molecule, the “Ratio IC50” value [16] was 30.3, the Activity [17] was “Active” and the Activity (PLC-PRF-5 [18]) was “Active”. The “Ratio IC50” value (PLC-PRF-5 [19]) was 30.3, the “Ratio IC50” value [20] was 15.8 and the Activity (MHCC97L [21]) was “Active”. The Activity (PLC-PRF-5 [22]) was “inactive”, the Activity [23] was “Active” and the Activity (PLC-PRF-5 [24]) was “Active”. The Activity (PLC-PRF-5 [25]) was 67.11%, the Activity [26] was 46.4% and the “Ratio IC50” value (PLC-PRF-5 [27]) was 15.8. For the same molecule, the Activity (PLC-PRF-5 [28]) was “Active”, the Activity [29] was 18.29% and the IC50 (PLC-PRF-5 [30]) was 1230 nM. For the same molecule, the Activity [31] was “Active”, the Activity (MHCC97L [32]) was “inactive” and the Activity (MHCC97L [33]) was “Active”. The Activity [34] was 4.18%, the Activity (MHCC97L [35]) was “Active” and the Activity (PLC-PRF-5 [36]) was “Active”. The Activity (PLC-PRF-5 [37]) was “Active”, the Activity (MHCC97L [38]) was “Active” and the IC50 [39] was 890 nM. It also gave an Activity (PLC-PRF-5 [40]) of 36.4%.
